Data taken from PubChem BioAssay (NCI).
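Compound exposure: 48 hours, 5 concentrations, 96-well plates. At the TGI there is no net growth.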

What was measured:
Test in all cases: NCI-60 cell line screen, 48 h
ACHN renal = tested on: ACHN renal
COLO 205 colon = tested on: COLO 205 colon
DU-145 prostate = tested on: DU-145 prostate
EKVX NSCLC = tested on: EKVX NSCLC
HCC-2998 colon = tested on: HCC-2998 colon
HOP-62 NSCLC = tested on: HOP-62 NSCLC
M14 melanoma = tested on: M14 melanoma
MOLT-4 leukemia = tested on: MOLT-4 leukemia
NCI-H226 lung = tested on: NCI-H226 lung
NCI-H460 lung = tested on: NCI-H460 lung
OVCAR-8 ovarian = tested on: OVCAR-8 ovarian
SK-MEL-2 melanoma = tested on: SK-MEL-2 melanoma
SK-MEL-28 melanoma = tested on: SK-MEL-28 melanoma
SK-MEL-5 melanoma = tested on: SK-MEL-5 melanoma
SNB-75 CNS = tested on: SNB-75 CNS
T-47D breast = tested on: T-47D breast
HL-60(TB) leukemia = tested on: HL-60(TB) leukemia
HS 578T breast = tested on: HS 578T breast
MALME-3M melanoma = tested on: MALME-3M melanoma
MDA-N = tested on: MDA-N

SMILES	TGI (ACHN renal) [µM]	TGI (COLO 205 colon) [µM]	TGI (DU-145 prostate) [µM]	TGI (EKVX NSCLC) [µM]	TGI (HCC-2998 colon) [µM]	TGI (HOP-62 NSCLC) [µM]	TGI (M14 melanoma) [µM]	TGI (MOLT-4 leukemia) [µM]	TGI (NCI-H226 lung) [µM]	TGI (NCI-H460 lung) [µM]	TGI (OVCAR-8 ovarian) [µM]	TGI (SK-MEL-2 melanoma) [µM]	TGI (SK-MEL-28 melanoma) [µM]	TGI (SK-MEL-5 melanoma) [µM]	TGI (SNB-75 CNS) [µM]	TGI (T-47D breast) [µM]	TGI (HL-60(TB) leukemia) [µM]	TGI (HS 578T breast) [µM]	TGI (MALME-3M melanoma) [µM]	TGI (MDA-N) [µM]
CS(=O)(=O)c1ccc(C(=O)O[C@@H]2C(=O)N3CC[C@H]4OC(O)[C@@H]2[C@H]43)cc1 (stereo partly drawn)	> 100	> 100	> 100	> 100	> 100	> 100	> 100	> 100	> 100	> 100	> 100	> 100	> 100	> 100	> 100	> 100	–	–	–	–
O=C1/C(=C/c2ccc([N+](=O)[O-])cc2)CCCc2ccccc21	> 100	> 100	> 100	> 100	> 100	> 100	> 100	> 100	> 100	> 100	> 100	> 100	> 100	–	> 100	–	> 100	75.9	> 100	> 100
CC1=C(O)C(=O)C2C(=O)C1C(C)C2c1ccccc1 (stereo not drawn)	> 100	> 100	–	> 100	> 100	> 100	> 100	> 100	> 100	–	> 100	> 100	> 100	> 100	> 100	–	–	–	> 100	–
COc1ccc(C/C=C(\C)CCO)cc1	> 100	> 100	> 100	> 100	–	> 100	> 100	> 100	–	> 100	> 100	> 100	–	> 100	> 100	–	–	> 100	–	> 100
CCCC(=O)Oc1c2ccsc2c(OC(=O)CCC)c2ccsc12	9.99	19.7	1.47	5.2	6.71	2.9	> 12.8	7.63	7.15	3.12	2.02	1.86	1.59	–	–	12.1	3.79	–	0.699	0.725
CSc1nc2nccnc2c(=O)[nH]1	> 100	> 100	–	> 100	> 100	> 100	> 100	> 100	> 100	> 100	> 100	> 100	> 100	> 100	> 100	–	> 100	–	> 100	–
CCSC1=N/C(=C\c2ccco2)C(Nc2ccc(C)cc2)=N1	> 100	> 100	> 100	> 100	–	> 100	> 100	> 100	> 100	–	> 100	> 100	> 100	> 100	> 100	–	–	> 100	> 100	> 100
OC(c1cc2ccccc2[nH]1)C(O)(c1cc2ccccc2[nH]1)c1cc2ccccc2[nH]1 (stereo not drawn)	50.1	8.85	–	60.9	44.3	48.3	–	> 245	40.4	51.3	75	50	55.1	39.8	–	–	127	–	59.7	–
CSc1c(C(N)=S)c(N)nn1-c1ccccc1	–	> 100	> 100	> 100	> 100	–	> 100	> 100	> 100	> 100	> 100	> 100	> 100	> 100	> 100	> 100	> 100	> 100	> 100	–
CCCNC(=O)Cn1c2c(c3ccccc31)CCCC2	> 100	> 100	–	> 100	> 100	> 100	> 100	> 100	–	> 100	> 100	> 100	> 100	> 100	–	–	> 100	68.8	> 100	> 100
COC(=O)CC(C(C(=O)OCc1ccccc1)C(C)O)N1C(=O)OCC1c1ccccc1 (stereo not drawn)	> 100	> 100	–	> 100	> 100	> 100	> 100	> 100	> 100	> 100	> 100	> 100	> 100	> 100	89.8	–	> 100	–	> 100	–
Brc1ccc2nc(-c3cccs3)nc(N3CCN(c4ccccc4)CC3)c2c1	> 100	> 100	> 100	> 100	> 100	> 100	> 100	–	> 100	> 100	> 100	> 100	> 100	> 100	> 100	> 100	> 100	> 100	> 100	–
O=c1c2ccccc2ncn1COCc1ccccc1	> 100	> 100	> 100	> 100	> 100	–	> 100	> 100	> 100	–	> 100	> 100	> 100	> 100	–	–	> 100	–	–	–
O=C([O-])c1ccccc1Nc1ccccc1C(=O)[O-].[OH3+].[Zn+2]	> 100	> 75.3	–	65.8	> 100	> 58.5	> 100	99.8	67	> 100	> 66.4	40.4	40.7	62.3	37.2	–	49.4	–	50.5	–
COc1ccccc1N1C(=O)CSC1c1cccc(Oc2ccccc2)c1 (stereo not drawn)	38.2	34.9	38.7	43.4	–	45.7	33.5	64.8	36.9	33.3	37.5	29.9	34.6	29.9	41.7	58.1	72.6	44.5	30.6	–
C/C1=C\[C@@H](C)C[C@@H](C)OC(=O)[C@@H](C)NC(=O)[C@H](Cc2ccc(O)c(Br)c2)N(C)C(=O)CNC(=O)[C@H](C)C1	0.249	> 100	> 100	–	70.1	–	> 100	> 64.1	–	> 69.1	> 40.4	25.6	17.3	> 52.8	< 0.01	–	< 0.01	0.69	9.83	> 100
Cc1cc(OP2(=O)NCc3ccncc3O2)ccc1Cl (stereo not drawn)	> 100	> 100	> 100	> 100	> 100	> 100	> 100	> 100	> 100	> 100	> 100	> 100	> 100	> 100	> 100	> 100	–	–	–	> 100
CC(C)(Oc1ccc2c(=O)cc(-c3ccc(Cl)cc3)oc2c1)C(=O)Nc1c(Cl)cccc1Cl	–	–	–	> 100	–	> 100	> 100	> 100	–	> 100	> 100	> 100	> 100	> 100	–	–	> 100	–	> 100	–
CC1=C(C(=O)O)N2C(=O)[C@@H](NC(=O)C(c3ccccc3)N3CSC(=S)N(C(C)C)C3)C2SC1 (stereo partly drawn)	> 100	> 100	–	> 100	–	> 100	> 100	> 100	–	> 100	> 100	> 100	> 100	> 100	> 100	–	> 100	–	> 100	–
CCOC(=O)c1ccc(NCc2ccc3nc(OC)c(OC)nc3c2)cc1	> 100	> 100	> 100	> 100	> 100	> 100	> 100	> 100	> 100	> 100	> 100	> 100	> 100	> 100	> 100	> 100	> 100	–	> 100	> 100
CC1=C/C(=N\NS(=O)(=O)c2ccc([N+](=O)[O-])cc2)CC(C)(C)C1	> 100	> 100	> 100	> 100	> 100	> 100	> 100	> 100	–	> 100	> 100	> 100	> 100	> 100	–	> 100	> 100	–	> 100	> 100
[N-]=[N+]=C1C(=O)C2CC3CC1CC2C3 (stereo not drawn)	> 100	> 100	–	> 100	> 100	> 100	> 100	> 100	> 100	> 100	> 100	> 100	> 100	> 100	> 100	–	> 100	–	> 100	–
CO/S(=N/S(=O)(=O)c1ccccc1)c1ccccc1[N+](=O)[O-] (stereo not drawn)	> 100	> 100	–	> 100	> 100	> 100	> 100	> 100	> 100	> 100	> 100	> 100	> 100	> 100	> 100	–	–	–	> 100	–
N=C1c2ccccc2C(=O)c2c(NCCNCCO)ccc(O)c21	57	16.9	–	46.9	21.4	22.5	24.8	10.8	44.7	15.1	> 76.2	33.5	23.2	19.3	49.3	–	27.6	–	35.8	–
COC(=O)Cc1cccc2c(=O)c(S(=O)(=O)NC(=O)Nc3ccc(Cl)cc3)c(-c3ccccc3)oc12	63.5	> 100	> 100	> 100	> 100	> 100	> 100	> 100	> 100	> 100	> 100	–	> 100	> 100	> 100	–	–	> 100	–	> 100
C=C(C)[C@@]12C[C@H](OC(=O)[C@H](O)[C@@H](NC(=O)c3ccccc3)c3ccccc3)C(C)=C1[C@@H](OC(C)=O)C(=O)[C@@]1(C)C([C@@H]2OC(=O)c2cc(F)cc(F)c2)C2(OC(C)=O)CO[C@@H]2C[C@@H]1O (stereo partly drawn)	> 9.36	0.392	> 5.16	> 10	2.16	> 5.79	> 10	1.24	> 10	9.22	> 4.03	2.28	> 10	> 10	0.973	> 8.57	0.224	0.215	> 8.81	–
CC12CP(=O)(O)CC1C2(Cl)Cl (stereo not drawn)	> 100	> 100	> 100	> 100	> 100	> 100	> 100	> 100	> 100	> 100	> 100	> 100	> 100	> 100	> 100	> 100	> 100	> 100	> 100	–
O=CC1=CCCN(CCc2c[nH]c3ccccc23)C1	125	149	–	202	128	104	–	> 393	102	105	206	119	41.1	129	–	–	91.3	–	122	–
